Read-outs that look alike come from different tables or passages of the source.
How the values were obtained:
[1] = system: ERα transcriptional activity in T47D:A18/PKCα cells; assay: ERE-luciferase reporter assay, T47D:A18/PKCα; type: cell-based; details: for ER agonist character in T47D:A18/PKCα cells in vitro: ERE-luciferase, 1 nM, 10 nM, 100 nM
T47D:A18/PKCα cells [2] = assay: DNA growth assay (2D culture), T47D:A18/PKCα; type: cell-based; details: E2-free media, 1 nM, 10 nM, 100 nM
[3] = Body weights of mice bearing T47D:A18/neo tumors; type: in vivo; details: seven week treatment, 1.5 mg/day p.o.
Source text: B) Body weights of treated mice from (A). C) Uterine weights from mice in (A). Weights are reported as uterine weight (mg)/body weight (g). *, P<0.05 versus control. Graphs show mean SEM.
Since BTC and TTC-352 treatment result in growth of T47D:A18/neo cells in 2D culture (FIGS. 1C and 1E) and in 3D […] (FIG. 2A), we next sought to determine if BTC and TTC-352 could sustain the growth of T47D:A18/neo tumors in vivo. […] Additionally, no significant weight loss was observed over the seven week treatment period (FIG. 5B).

[4] = system: ERα transcriptional activity in T47D:A18/neo cells; type: cell-based
T47D:A18/PKCα tumors = assay: T47D:A18/PKCα xenograft tumor regression; type: in vivo, mice; details: for persistence of T47D:A18/PKCα tumor regression after end of treatment: after two weeks of 1.5 mg/day p.o.; for T47D:A18/PKCα mean tumor size / T47D:A18/PKCα tumor regression: at two weeks; for T47D:A18/PKCα mean tumor size: 1.5 mg/day p.o.; for T47D:A18/PKCα tumor regression: 1.5 mg/day p.o. (E2: capsule), start ~0.5 cm^2 = 100%
uteri [5] = assay: Uterine weights of ovariectomized athymic mice (7 weeks); type: in vivo; details: following 7 weeks of treatment; 1.5 mg/day p.o. (E2: capsule)
[6] = system: MCF-7 human mammary cancer cells; details: references 16-19; cited from earlier work
ERα = target: T1, ERα (Homo sapiens, UniProt P03372); assay: ERα localization in T47D:A18/PKCα tumors by immunofluorescence; type: in vivo, mice; details: immunofluorescence staining of tumors
T1 sequence (P03372 1-595): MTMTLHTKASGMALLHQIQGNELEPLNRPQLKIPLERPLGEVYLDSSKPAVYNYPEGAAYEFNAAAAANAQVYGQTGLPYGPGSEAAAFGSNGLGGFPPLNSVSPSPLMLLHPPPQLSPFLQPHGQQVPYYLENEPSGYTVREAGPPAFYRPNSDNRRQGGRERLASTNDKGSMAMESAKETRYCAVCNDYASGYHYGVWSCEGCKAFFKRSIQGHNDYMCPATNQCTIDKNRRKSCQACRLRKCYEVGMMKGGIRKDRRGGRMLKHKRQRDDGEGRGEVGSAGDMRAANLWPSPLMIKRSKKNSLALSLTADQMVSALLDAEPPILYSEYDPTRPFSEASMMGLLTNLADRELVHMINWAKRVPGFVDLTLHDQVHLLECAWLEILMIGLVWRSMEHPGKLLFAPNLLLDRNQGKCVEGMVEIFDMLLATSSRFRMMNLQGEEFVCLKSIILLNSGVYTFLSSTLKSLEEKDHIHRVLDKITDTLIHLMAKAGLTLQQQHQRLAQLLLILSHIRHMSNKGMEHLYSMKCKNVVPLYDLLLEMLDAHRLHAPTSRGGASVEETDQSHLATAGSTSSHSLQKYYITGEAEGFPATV
Protocol: Tumor immunofluorescence confocal microscopy and co-localization analysis. Tumor sections (4 μm) were cut from paraffin blocks and prepared for IF staining by deparaffinization and rehydration. Antigen retrieval was performed by incubating slides in Tris-EDTA (pH=9.0) buffer at 90° C. and allowed to cool at room temperature for 45 min. Slides were blocked with antibody diluent (DAKO, Carpinteria, Calif. USA) for 20 min followed by primary antibody at 1:100 in antibody diluent for 1 h at room temperature. Slides were incubated with fluorescence-conjugated secondary antibodies at 1:100 in antibody diluent for 45 min at room temperature followed by DAPI (4′, 6-diamidino-2-phenylindole [1 μg/mL], DAKO, Carpinteria, Calif. USA) for 15 min. Slides were mounted with Vectashield mounting media (Vector Laboratories, Burlingame, Calif. USA). Confocal analysis was performed with a Zeiss LSM 510 microscope (Carl Zeiss, Incorporated, North America, Thornwood, N.Y. USA).
We have previously reported the possible involvement of an extranuclear ER in E2-induced tumor regression (11, 15).

T47D:A18/PKCα cells [7] = assay: Colony formation assay in […], T47D:A18/PKCα; type: cell-based; details: 3D culture, 10 days; E2 1 nM, BTC 100 nM, TTC-352 100 nM
Protocol: (§1) Colony formation assay in […] Matrix. […] (Becton Dickinson, Franklin Lakes, N.J. USA) was thawed overnight at 4° C. Twelve-well plates were coated with 200 μL […]/well and incubated at 37° C. for 30 min. Cells were suspended at 5×103 in 400 μL of phenol red-free RPMI 1640 and spread onto pre-gelled […] and allowed to incubate at 37° C. for 30 minutes, and 360 μL of treatment media containing 40 μL […] was then added. Plates were incubated at 37° C. for 10 days; medium containing 10% […] was replaced to the top of the […] every 3 days. Colonies were stained with crystal violet on day 10 and each well was counted by light microscopy (20×).
(§2) These concentrations were selected on the basis of proliferative effects in 2D cultures.

T47D:A18/neo tumors = assay: T47D:A18/neo xenograft tumor growth; type: in vivo, mice; details: for stimulation of growth of T47D:A18/neo xenograft tumors in vivo: 1.5 mg/day p.o., seven weeks; for T47D:A18/neo average tumor size: following seven weeks of treatment, 1.5 mg/day p.o. (E2: capsule)
T47D:A18/neo cells [8] = assay: Colony formation assay in […], T47D:A18/neo; type: cell-based; details: 3D culture, 10 days; E2 1 nM, BTC 100 nM, TTC-352 100 nM
Protocol: as §1, §2

[9] = Plasma levels of BTC after oral administration to mice; type: in vivo; details: single oral dose 10 mg/kg, ovariectomized athymic nude mice
T47D:A18/neo cells [10] = assay: DNA growth assay (2D culture), T47D:A18/neo; type: cell-based; details: only the higher concentration, 100 nM, E2 1 nM
[11] = system: Ishikawa human endometrial cancer cells; details: references 16-19; cited from earlier work
[12] = juvenile female rats, after 3 days of drug administration; cited from earlier work
[13] = system: T47D-Tam1 xenograft tumors; assay: T47D-Tam1 TAM-resistant xenograft tumors (Example 11); type: in vivo, mice; details: TTC-352 1.5 mg/day p.o. daily for seven weeks; E2 capsule
[14] = silastic capsules (1.0 cm) implanted subcutaneously; reference 14; cited from earlier work
[15] = system: T47D/PKCα xenograft tumors; assay: T47D/PKCα TAM-resistant xenograft tumors (Example 11); type: in vivo, mice; details: TTC-352 or raloxifene 1.5 mg/day p.o., seven weeks, also after withdrawal; E2 capsule
T47D:A18/PKCα cells [16] = details: reference 11; cited from earlier work
[17] = humans; cited from earlier work
uteri [18] = details: references 29-32, cited from earlier work
uteri [19] = assay: Uterine weights of mice (Example 11); type: in vivo; details: TTC-352 1.5 mg/day

SMILES	ER agonist character in T47D:A18/PKCα cells in vitro [1]	proliferation of T47D:A18/PKCα cells (DNA content) (T47D:A18/PKCα cells [2])	body weight of treated mice [3]	persistence of T47D:A18/PKCα tumor regression after end of treatment (T47D:A18/PKCα tumors)	T47D:A18/PKCα mean tumor size (T47D:A18/PKCα tumors) [cm^2]	T47D:A18/PKCα tumor regression (T47D:A18/PKCα tumors) [%]	uterine weights of ovariectomized mice (uteri [5])	estrogen agonist/antagonist character in MCF-7 cells [6]	ERα localization in regressing T47D:A18/PKCα tumors (ERα)	T47D:A18/PKCα colony formation in MATRIGEL (T47D:A18/PKCα cells [7])	stimulation of growth of T47D:A18/neo xenograft tumors in vivo (T47D:A18/neo tumors)	T47D:A18/neo average tumor size (T47D:A18/neo tumors) [cm^2]	T47D:A18/neo colony growth in MATRIGEL (T47D:A18/neo cells [8])	effect on the proliferation of T47D:A18/neo cells relative to E2 (T47D:A18/neo cells [10])	estrogen agonist/antagonist character in Ishikawa cells [11]	potency in Ishikawa cells relative to E2 [11]	T47D-Tam1 xenograft tumor response [13]	T47D/PKCα xenograft tumor response [15]	other results
Oc1ccc(-c2cc3ccc(O)cc3s2)cc1 [BTC, 2-(4-hydroxyphenyl)benzo[b]thiophen-6-ol]	act as ER agonists	proliferated in the presence of BTC and TTC-352 at all concentrations tested	no effect	sustained for at least four weeks post-treatment	~0.07	~88	no significant increase in the uterine weights	estrogen agonist	exit of ERα from the nucleus	inhibited	neither compound was able to significantly stimulate the growth	~0.04	stimulated	comparable to E2(1 nM) treatment	nanomolar estrogen agonists	three orders of magnitude below that of E2			ERE-luciferase induction in T47D:A18/PKCα cells compared with T47D:A18/neo cells ([1]; 100 nM and 10 nM): more sensitive than T47D:A18/neo cells; ERα transcriptional activity (ERE-luciferase) in T47D:A18/neo cells [4]: increase in ERα transcriptional activity; concentration at 6 h ([9]; female, mouse, plasma, 6 h): 10 ng/mL; peak plasma concentration ([9]; at 30 min): 40 ng/mL
Oc1ccc(-c2sc3cc(O)ccc3c2Oc2ccc(OCCN3CCCCC3)cc2)cc1 [DMA, Desmethylarzoxifene]																			remaining drug in plasma [12]: not observed above detection limits
C[C@]12CC[C@@H]3c4ccc(O)cc4CC[C@H]3[C@@H]1CC[C@@H]2O [E2, 17β-estradiol, reference compound]						~98	significant proliferative actions			inhibited		~0.35	stimulated				growth is inhibited by E2 treatment	growth is inhibited by E2 treatment	mean serum E2 level [14]: 379.5 pg/mL
O=C(c1ccc(OCCN2CCCCC2)cc1)c1c(-c2ccc(O)cc2)sc2cc(O)ccc12 [RAL, raloxifene]				failure of RAL-induced regression to persist after drug withdrawal		~50		estrogen antagonist							estrogen antagonist			caused tumor regression, however, drug withdrawal led to relapse	T47D:A18/PKCα MATRIGEL colony formation (previously reported) (T47D:A18/PKCα cells [16]): unable to inhibit MATRIGEL colony formation; oral clearance [17]: 441 kg⁻¹ h⁻¹; luminal epithelial cell thickness in ovariectomized rats (uteri [18]; doses up to 10 mg/kg/day): did not increase luminal epithelial cell thickness; uterine weight in ovariectomized rats (uteri [18]; minimally effective dose): did not increase uterine weight
CC/C(=C(\c1ccccc1)c1ccc(OCCN(C)C)cc1)c1ccccc1 [TAM, tamoxifen]							significant proliferative actions											TAM-resistant	
Oc1ccc(Oc2sc3cc(O)ccc3c2-c2ccc(F)cc2)cc1 [TTC-352, 3-(4-fluorophenyl)-2-(4-hydroxyphenoxy)benzo[b]thiophen-6-ol]	act as ER agonists	proliferated in the presence of BTC and TTC-352 at all concentrations tested	no effect	sustained for at least four weeks post-treatment	~0.18	~70	no significant increase in the uterine weights	estrogen agonist	exit of ERα from the nucleus	inhibited	neither compound was able to significantly stimulate the growth	~0.1	stimulated	comparable to E2(1 nM) treatment	nanomolar estrogen agonists	three orders of magnitude below that of E2	tumor regression comparable to that of E2-treated tumors	tumor regression comparable to that of E2-treated tumors	ERα transcriptional activity (ERE-luciferase) in T47D:A18/neo cells ([4]; 24 hours): increase in ERα transcriptional activity; uterine weight in mice (uteri [19]): did not increase uterine weight

From US10888545B2, “Compositions and methods for treating estrogen-related medical disorders” (THE BOARD OF TRUSTEES OF THE UNIVERSITY OF ILLINOIS, priority 2012, dated 2021)
